Laboratory results from PubChem BioAssay AID2753 (Vanderbilt High Throughput Screening Facility, 2010).
Activity calls are given as the source filed them. No rule for the calls is given here.

Target: ATP-sensitive inward rectifier potassium channel 1 (Homo sapiens) (UniProt P48048)
Assay: concentration-response of Kir1.1 channel inhibition – cell-based, thallium flux, HEK293, dose response (AID 2753)
Settings: HEK293 ROMK thallium flux, fluorescence

Sequence of ATP-sensitive inward rectifier potassium channel 1 (Homo sapiens) (P48048 whole entry, looked up): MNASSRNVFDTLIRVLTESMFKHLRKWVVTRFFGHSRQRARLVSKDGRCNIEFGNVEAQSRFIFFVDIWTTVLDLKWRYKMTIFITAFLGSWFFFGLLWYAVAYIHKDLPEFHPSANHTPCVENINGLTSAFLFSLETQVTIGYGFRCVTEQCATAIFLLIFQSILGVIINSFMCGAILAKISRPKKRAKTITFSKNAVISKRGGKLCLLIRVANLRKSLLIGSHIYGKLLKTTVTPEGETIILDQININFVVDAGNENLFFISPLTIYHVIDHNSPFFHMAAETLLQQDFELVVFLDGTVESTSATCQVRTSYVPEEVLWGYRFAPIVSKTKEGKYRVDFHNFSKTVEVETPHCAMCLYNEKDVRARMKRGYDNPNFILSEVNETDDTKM

Compound | IC50
c1csc(CNc2ncnc3sccc23)c1 | inactive
O=C1CCCCCN1Sc1ccccc1 | 4.49 µM
O=C1N=C2SCCN2/C1=C\c1ccc(Cl)cc1 | 4.79 µM
COCc1cc(C)nc(SCC[N+](C)(C)CC(=O)Nc2cccc(C(F)(F)F)c2)c1C#N | 9.27 µM
COc1ccc(NC(=O)/C(Cl)=C(/Cl)S(=O)Cc2ccccc2)cn1 (configuration not stated) | 1.21 µM
COc1cc(NC(C)=O)c2ncccc2c1[N+](=O)[O-] | 21.1 µM
Cc1ccc2nc(NC(=O)C(NS(=O)(=O)c3cccc4nsnc34)C(C)C)sc2c1 (configuration not stated) | inactive
CCCNC(=O)c1nnsc1S(=O)(=O)c1ccc(Cl)cc1 | 9.69 µM
O=C(/C(=C/c1ccc(Cl)cc1)c1nc2ccccc2[nH]1)c1cccs1 | 4.56 µM
CCOC(=O)c1ccc(-n2c(O)c(/C=N/NC(=O)C3COc4ccccc4O3)c3ccccc3c2=O)cc1 (configuration not stated) | inactive
COc1cc(/C=C2\C(=N)N3N=CSC3=NC2=O)cc(Br)c1OC(=O)c1ccco1 | 4.53 µM
CCOC(=O)N1CCN(S(=O)(=O)c2ccc3c(c2)SCC(=O)N3)CC1 | inactive
COC(=O)[C@@]1(Cc2ccccc2)[C@@H]2C(=CC(=O)[C@H]2CC(=O)C(=O)N(C)C)CN1C(=O)c1ccccc1 | 81 µM
O=C(N/N=C/c1cn(-c2cccs2)nc1-c1ccccc1)c1ccc(O)cc1 | 4.99 µM
COC(=O)/C=C1/SC(=NC(=O)c2ccc(F)cc2)NC1=O | 19.1 µM
Cc1cc2c(cc1S(=O)(=O)N(C)c1ccccc1)NC(=O)CO2 | 0.909 µM
O=C(/C=C/c1cn(CC(O)CN2CCCCC2)c2ccccc12)c1ccccc1 (configuration not stated) | inactive
CCOCCCNC(=O)/C(C#N)=C/c1ccc(C(=O)OC)cc1 | inactive
CC(=O)/C(=C/c1ccccc1)C(=O)Nc1ccccc1C | 23 µM
O=C(O)c1cccc(CN2C(=O)S/C(=C/c3cccc([N+](=O)[O-])c3)C2=O)c1 | 5.71 µM
CCOc1ccccc1N(CC(=O)N1CCOCC1)S(=O)(=O)c1ccc(SC)cc1 | 1.4 µM

Compound | IC50
Cc1cc(C)c(C)c(S(=O)(=O)NC2CCN(Cc3ccccc3)CC2)c1C | 17 µM
Cc1ccc(C(C)C)c(OCC(=O)NN=C(CCl)CCl)c1 | inactive
CCOCCCNC(=O)/C(C#N)=C/c1ccccc1F | inactive
Cc1ccc(-n2c3nc(=O)[nH]c(=O)c-3cc3cc([N+](=O)[O-])ccc32)cc1 | 8.66 µM
COC(=O)Cn1cc(/C=C/[N+](=O)[O-])c2ccccc21 | 63 µM
N#Cc1ccc(/C=C/C(=O)c2cccnc2)cc1 | 4.51 µM
CCOC(=O)c1c(NC(=O)C[n+]2ccc(Cc3ccccc3)cc2)sc(C)c1C | inactive
COc1cccc(/C=C2\SC(=S)N(N3C(=O)CCCC3=O)C2=O)c1 | inactive
C=CCNC(=O)/C(C#N)=C\c1cc(Cl)c(OCC)c(OC)c1 | 86.8 µM
O=C(NCc1ccccc1)N1CCC(n2cnc3cc(F)ccc32)CC1 | inactive
N#C/C(=C\C1=C(N2CCOCC2)C(=C\c2ccccc2)/CC1)C(=O)Nc1ccccc1F | 14.5 µM
COC(=O)C(=Cc1ccccc1[N+](=O)[O-])C(=O)OC | 8.19 µM
CC1CN(c2ccc([N+](=O)[O-])c(NCCOc3ccccc3)c2)CCN1 (configuration not stated) | inactive
CSc1ccc(/C=C(\C#N)C(=O)NC2CCCCC2C)cc1 (configuration not stated) | 3.24 µM
N#C/C(=C\c1ccncc1)c1nc2ccccc2[nH]1 | inactive
N#C/C(=C/c1cc(Br)cs1)C(=O)NCC1CCCO1 (configuration not stated) | inactive
N#C/C(=C/c1ccncc1)c1nc2ccccc2s1 | 2.68 µM
O=C(Cn1nc(CNc2ccc(Cl)cc2)[n+]2c1CCCCC2)c1ccc(Cl)cc1 | 5.52 µM
N#CC1=C(N)N(c2ccccc2)C(c2cccc([N+](=O)[O-])c2)C1(C#N)C#N (configuration not stated) | 11.5 µM
Cc1cnc2ncc3sccc3c2c1 | 13.5 µM
CCCNc1nc(Cl)nc(NC(C)(C)C)n1 | 2.78 µM
